One compound from paper PMC9050848, “Carbamoyl-N-aryl-imine-urea: a new framework to obtain a putative leishmanicidal drug-candidate” (RSC Advances, 2020) can be followed below.

Each structure is given as a SMILES string.

Series [1] concerns L. amazonensis. As to the kind of experiment: Murine model of cutaneous leishmaniasis induced by L. amazonensis (efficacy). Format: in vivo, BALB/c mice. The conditions noted are these: 30 μmol per kg per day × 28 days. The procedure:
So, BALB/c mice infected with L. amazonensis were treated during 28 days with compound 10e (30 μmol per kg per day, i.p.) or with the standards miltefosine (30 μmol per kg per day, p.o.) and meglumine antimoniate (30 μmol per kg per day, i.p.).
(§1) This study (protocol number 2013.02) was approved by the Ethics Committee for Animal Experimentation of the Federal University of Alagoas (Brazil). All animals received humane care in compliance with the ‘Principles of laboratory animal care’ formulated by the National Society for Medical Research and the ‘Guide for the care and use of laboratory animals’ prepared by the National Academy of Sciences (Washington, DC). Then, 1 × 10^5 stationary promastigotes (5 days of culture in Schneider's medium) of L. amazonensis were inoculated subcutaneously into the right ear dermis of 6 week-old female BALB/c mice weighing ca. 20 g. and later treated with 10e (i.p.), miltefosine (p.o.) or meglumine antimoniate (i.p.) at 30 μmol kg^−1 × 28 days. The vehicle to solubilize 10e (LASSBio-1736) and standard drugs was Tween 20 (50 μL) and sterile water for injection, which was also administrated by i.p. route in two controls groups (non-infected control and infected control). The lesion size was measured using a paquimeter.[32] The parasite loads of infected ears and draining lymph nodes were determined using a quantitative limiting-dilution assay.[33] Toxicity was also evaluated due to alterations on spleen weight and by biochemistry dosages in plasma, performed according to the manufacturer's instructions (Doles, BRA). Data obtained from experiments were expressed as the mean ± S.E.M. and statistical differences between the treated and the vehicle groups of experiments were evaluated by ANOVA and Dunnett hoc tests.

The test system of series [2] is J774.A1 cell lines (macrophages). As to the kind of experiment: Cytotoxicity against J774.A1 macrophages, MTT assay. The conditions noted are these: Mus musculus, J774.A1, 48 h, read-out: IC50 (concentration required to give 50% death of cells). Type of series: cell-based, murine (BALB/c). The procedure: Initially the cytotoxic profile of compounds 9a–e and 10a–e against J774.A1 cell lines (i.e., BALB/c macrophage cell lines) was investigated. Therefore, these cells were exposed to different concentrations (0.1–100 μM) of compounds 9a–e and 10a–e and the cytotoxic effect was measured after 48 h of drug incubation, by using MTT-based assay. The cytotoxicity was expressed as IC50 values (that means the concentration of a drug that kills half of the tested cells in culture). As depicted in Table 1, most compounds have shown low cytotoxic activity with IC50 > 100 μM.
These adherent-phenotype macrophage lines were cultured in Dulbecco's Modified Eagle's medium (DMEM, Sigma) supplemented with 10% FBS at 37 °C with 95% humidity and 5% CO2.
To evaluate the cytotoxic activity against the J774.A1 cell line, the host cells were plated in 96-well cell culture plate (flat bottom, clear, Corning) at 2 × 10^5 cells per well in complete culture medium 10% FBS at 37 °C. After 1 h wells were washed with warm Hank's Balanced Salt solution (HBSS) to remove non-adherent cells, leaving approximately 10^5 adherent macrophages. All cultures were done in DMEM complete supplemented with 10% FBS. The compounds and pentamidine were added at serial concentrations (0.1–100 μM). The cells were also cultured with medium free from compounds or vehicle (basal growth control) or in media with DMSO 0.1% (vehicle control). Positive control (dead cells) was obtained by cellular lysis with 1% of Triton 100× in DMEM complete (because it is a detergent in this concentration, Triton 100× destabilizes the cell membrane of macrophages, causing cell death). The cytotoxicity was evaluated by the MTT assay.[31] This assay consists of indirectly measuring cell viability through the mitochondrial enzymatic activity of macrophages. Viable cells are capable of reducing MTT to formazan. For this, after the incubation of plate for 48 h, 100 μL of MTT solution (0.5 mg mL^−1, in DMEM medium) was added per well, and the plate was incubated for 1 h. Then, the supernatant of each well was retired and was added 150 μL of DMSO. The absorbance was determined at 570 nm in a microplate reader. The cell viability of the cultures treated with the compounds was compared to the death pattern obtained in the control cultures. In the positive control, the cell death was confirmed when the optical density was equal to zero, confirming that the cells were not viable. Data obtained from experiments were expressed as the mean ± standard error of the mean (mean ± S.E.M.) and statistical differences between the treated and the vehicle groups of experiments were evaluated by ANOVA and Dunnett hoc tests.
For orientation: Tetrazolium assays rely on reduction of a dye to a coloured formazan, in cell work by metabolically active cells.

Series [3] in a line: Chemical stability in PBS pH 7.4. Type of series: physicochemical. The conditions noted are these: PBS pH 7.4, 37 °C, 0 and 240 minutes. The procedure: To investigate the potential plasma instability of the carbamoyl-N-arylimine-urea subunit, designed as a new peptide mimetic framework, compound 10e (LASSBio-1736) was selected to investigate its plasma stability,[21,22] previously to the evaluation of its in vivo leishmanicidal effect. Quantitation of 10e (LASSBio-1736), benzocaine standard (positive control; it means a substrate drug for plasma hydrolysis) and ketoconazole (internal standard) was determined by UPLC-MS/MS, after incubation of the compounds at 0, 30, 60, 120 and 240 min with rat plasma, and measuring the peak areas in three different experiments. […]
final R1 factor for I >2σ(I ) 0.0594 final wR 2 factor for all data 0.1689 largest diff. peak / hole (e/Å 3) 0.220 and -0.256
Chemical stability pH 7.4
In a 10 mL tube, 5μL (250 ng/mL) of LASSBio-1736 (10e) (stock concentration = 10000 ng/mL solubilized in DMSO) was added in 195μ L of PBS (pH=7.4), and the mixture was placed in a shaker at 37 °C under vigorous stirring for 0 and 240 minutes. […]
The samples were resuspended with 100 μL of a methanol:water mixture (7:3) […] and were placed in 2 mL vials, and analyzed by UPLC-MS. […]

The nature of series [4]: Toxicity in treated infected mice (survival, spleen weight, serum biochemistry). The conditions noted are these: 30 μmol per kg per day × 28 days. Format: in vivo. The procedure:
The survival of BALB/c mice infected with L. amazonensis untreated and treated during 28 days with the daily dose of 30 μmol kg^−1 with meglumine antimoniate, miltefosine and 10e (LASSBio-1736) was analyzed. Animal mortality was not observed for the groups treated with 10e and miltefosine, while 20% of death was identified from the 25th day of treatment with meglumine antimoniate (Fig. 11). After the end of treatment, the animal's toxicity was investigated looking for any alterations on spleen weight and on alanine aminotransferase (ALT), aspartate aminotransferase (AST), creatinine (CREA) and urea serum levels.
as §1

Regarding `O=C(N/N=C/c1ccc(C(F)(F)F)cc1)NNC(=O)c1ccc(Cl)cc1Cl` [LASSBio-1736 (10e), 2,4-dichloro-phenylcarbamoyl-N-4-trifluoromethylphenylimine-urea], the “Appearance of lesions on the first day after end of treatment (photographs)” value in series [1] was “complete healing of the nodules and ulcers”. The “Lesion sizes of infected ear” value in series [1] (10e and meglumine antimoniate i.p., miltefosine p.o.) is “reduced the lesion sizes of infected ear like miltefosine”. In series [1] (limiting-dilution assay), the “L. amazonensis titer in draining lymph node” value was “not reduced the L. amazonensis titer in draining lymph node” and the “Parasite load in infected ear” value was “decreased parasite load in infected ear”. For the same compound, the IC50 in series [2] was over 100 µM. In series [3], the “Stability to hydrolysis at PBS (pH 7.4)” value is “stable to hydrolysis”. Besides, the “Serum levels of ALT, AST, creatinine and urea” value in series [4] (after end of treatment, i.p.) was “did not significantly interfere”. Besides, in series [4] (last day of treatment), the Spleen weight entry was “did not alter animal's spleen weight”.
